Columns and labels:
[1] = target: T1, Arabidopsis thaliana HPPD (AtHPPD) (Arabidopsis thaliana, UniProt P93836); experiment: Determination of HPPD activity in presence of HPPD inhibitor (percentage of inhibition); assay type: biochemical; settings: 5.0×10^−6M of compound, compared to activity in absence of compound
T1 construct: His6 (N); made in house; host or cells: E. coli K-12 BL21
T1 sequence (P93836 1-445): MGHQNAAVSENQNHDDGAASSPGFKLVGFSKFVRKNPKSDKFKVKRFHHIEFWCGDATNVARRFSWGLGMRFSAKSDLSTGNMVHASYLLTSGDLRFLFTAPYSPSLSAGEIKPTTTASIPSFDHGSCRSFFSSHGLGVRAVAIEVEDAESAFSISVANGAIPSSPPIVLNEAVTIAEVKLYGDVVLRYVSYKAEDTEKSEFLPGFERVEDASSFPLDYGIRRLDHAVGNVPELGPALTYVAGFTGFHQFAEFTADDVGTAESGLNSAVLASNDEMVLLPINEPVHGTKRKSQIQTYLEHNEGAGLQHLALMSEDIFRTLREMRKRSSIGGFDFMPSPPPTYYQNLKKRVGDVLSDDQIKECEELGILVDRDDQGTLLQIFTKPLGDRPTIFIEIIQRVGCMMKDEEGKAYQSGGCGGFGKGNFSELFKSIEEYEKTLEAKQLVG
Experimental: (§1) The HPPD activity was checked by the standard spectrophotmetric assay (method extensively described in WO 2009/144079)
(§2) Level of tolerance of HPPD proteins obtained from different organisms was determined according to the procedure as described in PCT/EP2010/070575.
(§3) Table E1: Determination of Percentage of Inhibition in Presence of 5.0×10^−6M of Compound “4-137” Compared to the Activity Measured in Absence of Compound No. “4-137” With HPPD Originated from Arabidopsis thaliana (AtHPPD), Mutated Pseudomonas fluorescens PfHPPD-G336W, Avena sativa (AvHPPD), FMP27 (Derived from Kordia algicida) and FMP37 (Derived from Blepharisma japonicum).

[2] = tested on: Avena sativa HPPD (AvHPPD); experiment: as above; assay type: biochemical
Experimental: as §1, §2, §3

[3] = tested on: FMP27 (HPPD derived from Kordia algicida); experiment: as above; assay type: biochemical
Experimental: as §1, §2, §3

[4] = tested on: FMP37 (HPPD derived from Blepharisma japonicum); experiment: as above; assay type: biochemical
Experimental: as §1, §2, §3

[5] = tested on: mutated Pseudomonas fluorescens PfHPPD-G336W; experiment: as above; assay type: biochemical
Experimental: as §1, §2, §3

[6] = tested on: transgenic tobacco plants expressing Avena HPPD (AvHPPD); experiment: Symptoms due to herbicide application on transgenic tobacco plants (damage classes 0-3); assay type: in vivo; settings: 25 g Al/ha, one week after application
Outline: (§4)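 Tobacco transformed via pBin19 with the HPPD gene under CaMV35S, fused to an N-terminal chloroplast transit peptide. T1 plants, potted at 3 weeks and grown 2 more weeks, sprayed with N-(tetrazol-4-yl)/N-(triazol-3-yl)arylcarboxamides (g AI/ha) on 8–10 plants from 1–3 events per transgene. Damage scored 0 (none) to 3 (very strong), versus non-transformed plants.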

[7] = tested on: transgenic tobacco plants expressing HPPD from Blepharisma japonicum (FMP37); experiment: as above; assay type: in vivo; settings: 25 g Al/ha, one week after application
Outline: as §4

[8] = tested on: transgenic tobacco plants expressing HPPD from Kordia algicida FMP27; experiment: as above; assay type: in vivo; settings: 25 g Al/ha, one week after application
Outline: as §4

[9] = tested on: transgenic tobacco plants expressing mutant Pseudomonas fluorescens HPPD G336W (PfHPPD-G336W); experiment: as above; assay type: in vivo; settings: PfHPPD-G336W line 646; 25 g Al/ha; one week after application
Outline: as §4

Cc1c(C(=O)Nc2nnnn2C)ccc(C(F)(F)F)c1S(C)(=O)=O [Compound 4-137]
82%: Inhibition % ([4]; 5.0×10^−6M of compound, compared to activity in absence of compound, FMP37)
3: number of plants with Damage 0 (No damage) ([6]; AvHPPD line 656) | number of plants with Damage 0 (No damage) ([6]; AvHPPD line 659) | number of plants with Damage 1 (Light and transient damage) ([6]; AvHPPD line 659) | number of plants with Damage 3 (Very strong damage) ([8]; FMP27 line 734) | number of plants with Damage 0 (No damage) ([8]; FMP27 line 735) | number of plants with Damage 3 (Very strong damage) ([8]; FMP27 line 735) | number of plants with Damage 3 (Very strong damage) [9]
less sensitive: tolerance/sensitivity of the HPPD to the inhibitor compared to Arabidopsis thaliana HPPD ([2]; AvHPPD versus AtHPPD, identical experimental conditions) | tolerance/sensitivity of the HPPD to the inhibitor compared to Arabidopsis thaliana HPPD ([3]; FMP27 versus AtHPPD, identical experimental conditions) | tolerance/sensitivity of the HPPD to the inhibitor compared to Arabidopsis thaliana HPPD ([4]; FMP37 versus AtHPPD, identical experimental conditions) | tolerance/sensitivity of the HPPD to the inhibitor compared to Arabidopsis thaliana HPPD ([5]; PfHPPD-G336W versus AtHPPD, identical experimental conditions)
90%: Inhibition % ([3]; 5.0×10^−6M of compound, compared to activity in absence of compound, FMP27)
6: number of plants with Damage 3 (Very strong damage) ([7]; FMP37 line 795)
5: number of plants with Damage 3 (Very strong damage) ([6]; AvHPPD line 656) | number of plants with Damage 3 (Very strong damage) ([8]; FMP27 line 733) | number of plants with Damage 0 (No damage) ([8]; FMP27 line 734) | number of plants with Damage 0 (No damage) [9]
0: number of plants with Damage 2 (Strong damage) ([6]; AvHPPD line 659) | number of plants with Damage 2 (Strong damage) ([6]; AvHPPD line 699) | number of plants with Damage 2 (Strong damage) ([7]; FMP37 line 749) | number of plants with Damage 3 (Very strong damage) ([7]; FMP37 line 749) | number of plants with Damage 0 (No damage) ([7]; FMP37 line 754) | number of plants with Damage 1 (Light and transient damage) ([7]; FMP37 line 795) | number of plants with Damage 1 (Light and transient damage) ([8]; FMP27 line 733) | number of plants with Damage 2 (Strong damage) ([8]; FMP27 line 734) | number of plants with Damage 1 (Light and transient damage) ([8]; FMP27 line 735) | number of plants with Damage 2 (Strong damage) [9]
1: number of plants with Damage 1 (Light and transient damage) ([6]; AvHPPD line 656) | number of plants with Damage 2 (Strong damage) ([6]; AvHPPD line 656) | number of plants with Damage 0 (No damage) ([6]; AvHPPD line 699) | number of plants with Damage 1 (Light and transient damage) ([7]; FMP37 line 754) | number of plants with Damage 2 (Strong damage) ([7]; FMP37 line 754) | number of plants with Damage 2 (Strong damage) ([8]; FMP27 line 733)
4: number of plants with Damage 3 (Very strong damage) ([6]; AvHPPD line 659) | number of plants with Damage 0 (No damage) ([8]; FMP27 line 733) | number of plants with Damage 2 (Strong damage) ([8]; FMP27 line 735)
2: number of plants with Damage 1 (Light and transient damage) ([6]; AvHPPD line 699) | number of plants with Damage 1 (Light and transient damage) ([7]; FMP37 line 749) | number of plants with Damage 0 (No damage) ([7]; FMP37 line 795) | number of plants with Damage 2 (Strong damage) ([7]; FMP37 line 795) | number of plants with Damage 1 (Light and transient damage) ([8]; FMP27 line 734) | number of plants with Damage 1 (Light and transient damage) [9]
8: number of plants with Damage 0 (No damage) ([7]; FMP37 line 749) | number of plants with Damage 3 (Very strong damage) ([7]; FMP37 line 754)
93%: Inhibition % ([2]; 5.0×10^−6M of compound, compared to activity in absence of compound, AvHPPD)
7: number of plants with Damage 3 (Very strong damage) ([6]; AvHPPD line 699)
92%: Inhibition % ([5]; 5.0×10^−6M of compound, compared to activity in absence of compound, PfHPPD-G336W)
100%: Inhibition % [1]
